Assay results: US20120238606A1, “[…] AMINE SALTS, PREPARATION METHOD AND USE THEREOF” (JIANGSU HANS PHA[…] CO., LTD., priority 2009, published 2012)

Columns and labels:
[1] = system: angiotensin II-induced hypertensive rats; test: Effect on blood pressure in angiotensin II-induced hypertensive rats; format: in vivo, Sprague-Dawley rats; conditions: male SD rats, single equimolar dose ig (0.11 mg/kg example 1; 0.123 mg/kg example 2) in 0.5% methyl cellulose, AII 100 ng/kg iv again after 24 hours, Mean±S.E.
Protocol: The effect of compounds of the present invention on blood pressure in angiotensin II-induced hypertensive rats was investigated.
Male Sprague-Dawley rats (9-11 weeks old, CLEA Japan, Inc.) were anesthetized by pentobarbital solution (50 mg/kg, ip.) and prepared for surgery. The surgery procedure was as follows: made an incision through the skin on the abdomen and abdominal wall, separated the aorta and vein from the vena cava, occluded blood flow to allow introduction of a polyethylene (PE) tube filled with normal saline containing heparin (200 U/mL) into the vessel, passed the PE tube through the subcutaneous slits, and fixed the PE tube at the back of the neck. After recovery period, the rats were induced hypertension by intravenous administration of 100 ng/kg angiotensin II (AII). The PE tube was combined with a pressure transducer coupled to a blood pressure monitor amplifier (2238, NEC San-ei Instruments). The animals were enrolled based on average systolic blood pressure over 24 hours. All the animals with average systolic blood pressure less than 140 mmHg were excluded from this study, and the others were divided into 2 groups. […] The rats were injected intravenously AII again after 24 hours, and their blood pressure were measured by the monitor. The rat blood pressure inhibition ratios after dosing were calculated. […] The results were expressed as Mean±S.E. (Table 1).

[2] = system: angiotensin II-induced hypertensive dogs; test: Effect on blood pressure in angiotensin II-induced hypertensive dogs; format: in vivo; conditions: male Beagle dogs, equimolar dose ig (1.10 mg/kg example 1; 1.23 mg/kg example 2) in 0.5% methyl cellulose, mean±S.E.
Protocol: The effect of compounds of the present invention on blood pressure in angiotensin II-induced hypertensive dogs was investigated.
In this study, male Beagle dogs (weighting 12.0-14.7 kg, KITAYAMA LABES, CO., LTD.) were employed. The dogs were anesthetized by pentobarbital solution (50 mg/kg, ip) and prepared for surgery. The surgery procedure was as follows: made an endotracheal intubation for controlling the breathing, shaved the regions of femoral and back of the neck, fixed the dogs at the dorsal position, used isodine solution (MEIJI SEIKA KAISHA, LTD.) to sterilize the skins, made an incision through the skin on the right femoral region, separated the arteria femoralis, occluded blood flow to allow introduction of a mirror catheter (5 F, MILLER INDUSTRIES) and polyurethane tube into the aorta and vein, respectively, passed the tubes through the subcutaneous slits and fixed the tubes at the back, closed the wall and sutured the skin, and injected intramuscularly the penicillin G potassium (MEIJI SEIKA KAISHA, LTD., 40,000 units) for sterilization. For post-operative care, animals were administered 40,000 units penicillin G potassium intramuscularly once daily for 3 days. There was a recovery period before study ongoing.
The animals were singly housed in a small metabolic cage and fasted during the experiment. The mirror catheter was linked to a transducer unit (MILLER INDUSTRIES). Through a DC amplifier (N4777, NEC San-ei Instruments) and a blood pressure monitor amplifier (N4441, NEC San-ei Instruments), the blood pressure was recorded by a recorder (RECTI-HORIZ 8 K, NEC San-Ei Instruments). In order to establish a hypertension model, the dogs were injected intravenously 100 ng/kg AII for 3 or 4 times before dosing test articles. The test articles were an equal molar dose suspended in 0.5% methyl cellulose, and the dosing volume for all animals was 2 mL/kg. After administration, the blood pressure was measured by the monitor. The dog blood pressure inhibition ratios after dosing were calculated, and the results were expressed as mean±S.E. (Table 2).

SMILES | Inhibition ratios (%) (blood pressure inhibition ratio after dosing) [1] | Inhibition ratios (%) 10 hr post dosing [2] [%] | Inhibition ratios (%) 24 hr post dosing [2] [%]
CCOc1nc2cccc(C(=O)O)c2n1Cc1ccc(-c2ccccc2-c2noc(=O)[nH]2)cc1.NCCO [Product of example 1, Azilsartan ethanolamine] | 57.4 ± 6.7 | 82.7 ± 7.3 | 61.6 ± 4.8
CCOc1nc2cccc(C(=O)O)c2n1Cc1ccc(-c2ccccc2-c2noc(=O)[nH]2)cc1.C[N+](C)(C)CCO [Product of example 2, Azilsartan choline] | 54.3 ± 5.1 | 79.3 ± 8.6 | 59.5 ± 6.3
